# Experimental data: patent publication US6127337A, “Bivalent thrombin inhibitors” (National Research Council of Canada, priority 1993, dated 2000)
# Values joined by “and” are separate entries in the source; they are usually repeats but may differ in a detail not shown here. Equal values may be shown once. Read-outs that look alike come from different tables or passages of the source.
# Key:
# [1] = biological target: T1, human thrombin (Homo sapiens, UniProt P00734); experiment: Fibrin clotting assay; type: biochemical
# T1 construct: Human α-thrombin (3,000 NIH units/mg); purchased Sigma
# From the text: Abbreviations. The following abbreviations have been used in the specification: Abu, γ-aminobutyric acid; Ac, acetyl; Aca, ε-aminocaproic acid; Aca*, 8-aminocapylic acid; Acha, 1-aminocyclohexane-carboxylic acid; Ada, 12-aminododecanoic acid; AMC, 7-amino-4-methylcoumarin; Aua, 11-aminoundecanoic acid; Ava, δ-aminovaleric acid; Bal, β-alanine; Boc, tert-butyloxycarbonyl; BrBzs, 4-bromobenzenesulfonyl; Bzs, benzene sulfonyl; Cha, β-cyclohexylalanine; Fmoc, 9-fluorenylmethoxycarbonyl;FRE, fibrinogen recognition exo site; HPLC, high performance liquid chromatography; MD805, (2R,4R)-4-methyl-1-[N^α -(3-methyl-1,2,3,4-tetrahydro-8-quinolinesulphonyl-glycyl)-L-arginyl]-2-piperidine carboxylic acid; NAPAP, N^α (2-naphtyl-sulphonyl)-D,L-p-amidinophenylalanyl-piperidide; Nas, naphtylsulfonyl; Nle, norleucine; 3-TAPAP, N^α -(4-toluene-sulphonyl)-D,L-p-amidinophenylalanyl-piperidide; OBzl, benzylester; Pip, pipecolic acid; PPACK, D-Phe-Pro-Arg chloromethylketone; tBbs, 4-tert-butylbenzenesulfonyl; Tic, 1,2,3,4-tetrahydroisoquinoline-3-carboxylic acid; TipBs, 2,4,6 triisopropylbenzenesulfonyl; TFA, trifluoroacetic acid; Tos, tosyl; Tris, 2-amino-2-(hydroxymethyl)-1,3-propanediol. All amino acid residues are L-configuration unless otherwise indicated. IC50 is defined as the inhibitor concentration required to double the clotting time relative to the control; means of three determinants ±SEM.
# The fibrin clotting assay was performed in 50 mM Tris HCl buffer (pH 7.52 at 37° C.) containing 0.1 M NaCl and 0.1% poly(ethylene glycol) 8000 with 9.0×10^-10 M (0.1 NIH unit/mL) and 0.03% (w/v) of the final concentrations of human thrombin and bovine fibrinogen, respectively, as reported elsewhere (Szewczuk et al., 1992). The clotting time was plotted against the inhibitor concentrations and the IC50 was estimated as the inhibitor concentration required to double the clotting time relative to the control.
# [2] = tested on: carotid injury-induced thrombosis; experiment: FeCl3 induced arterial injury model (carotid injury-induced thrombosis); type: in vivo; conditions: rat; for Dose to double occlusion time: control occlusion time 19 ± 1 min; for Dose to achieve patency at 60 min.: patency defined by no drop in vessel temperature
# Procedure: […]: Rat, male, Sprague-Dawley. Weight: 375-450 g The FeCl3 induced arterial injury model assays were conducted according to Kurz, K. D., Main, […]., Thrombosis research 60; 269-280, 1990 and Schumacher, W. A. et al. J. pharmacology and experimental therapeutics 267; 1237-1242, 1993. Male, Sprague-Dawley (375-450 g) are anesthetized with Urethane (1500 mg/kg IP). Animals are laid on a heating pad which is maintained at 37° C. The carotid artery is approached through a midline cervical incision. Carefully blunt dissection is used to expose and isolate the vessel from the carotid sheath. Using forceps, the artery is lifted to provide clearance to insert two small polyethylene tubing (PE-205) underneath it. The temperature probe (Physitemp MT23/3 )TM is placed between the PE-205 and the artery. The vessel temperature is monitored for 60 minutes after application of FeCl3. Vessel temperature changes are recorded on a thermister (Cole-Palmer Model 08533-41). Injury is induced by application of a small disc (3 mm dia.) of WhatmanTM No.1 filter paper previously dipped in a 35% solution of FeCl3 on the carotid artery above the temperature probe. The site of the experiment is covered with in Aluminum foil in order to protect the FeCl3 from degradation by light. […] Before the start of the experiment, one blood sample is drawn (1 ml) in a tube of 0.105M buffered citrate solution (from the eye's sinus) and the animal is exsanguinated at the end. All the samples are kept on ice and centrifuged as soon as possible at 2000 Rpm for 10 min., 4° C. The plasma is analyzed in duplicate for activated partial thromboplastin time on a haemostasis analyzer (STAGO ST4TM). From a group of four animals, two arteries are stored at -80C for further analysis.
# [3] = biological target: T1, human thrombin; experiment: Inhibition of amidolytic activity of human thrombin (fluorogenic, Tos-Gly-Pro-Arg-AMC), Ki; type: biochemical
# Procedure: Materials. The chromogenic and fluorogenic substrates Tosyl-Gly-Pro-Arg-pNAand Tos-Gly-Pro-Arg-AMC were purchased from Boehringer Manheim and Sigma, respectively. […] Initial velocities were recorded at several inhibitor concentrations and kinetic parameters were determined by fitting the data to a general equation describing enzyme inhibition (Segel, 1975). The data were analyzed using the non-linear regression program RNLIN in the IMSL library (IMSL, 1987) on a microVAX™ 3500 computer. […] Fluorogenic assays were conducted using the same conditions and instrument as above operating in the fluorescence mode in the ratio (λex =383 nm, λem =455 nm) Fluorescence intensities were calibrated with 7-amino-4-methyl coumarin solution of known concentration
# Determination of Thrombin Inhibitory Dissociation Constants KI
# The steady-state velocity was then measured for a few minutes. The compounds of this invention were also pre-incubated with thrombin for 20 min at room temperature before adding the substrate. […] The kinetic data (the steady-state velocity at various concentrations of the substrate and the inhibitors) of the competitive inhibition was analyzed using the methods described by Segel (1975). A non-linear regression program, RNLIN in the IMSL library (IMSL, 1987), LMDER in MINPACK library (More et al., 1980) or Microsoft™ Excell™, was used to estimate the kinetic parameters (Km Vmax and Ki). The biological data are reported on tables I-V.
# [4] = given intravenously or subcutaneously, depending on the species; cited from earlier work
# [5] = Table V, concentration to double the clotting time, read-out: IC50 (dtt)
# [6] = Table I, inhibitor concentration required to double the clotting time, means of three ±SEM, read-out: IC50
# [7] = Table I, active site directed inhibitors, human thrombin 6.0×10^-11 M, substrate 1-8×10^-5 M, read-out: Ki
Substance,"IC50 [1, 5] [nM]",Dose to double occlusion time [2] [mg/kg i.v. bolus],Dose to achieve patency at 60 min. [2] [mg/kg i.v. bolus],"Ki ([3]; Table V, read-out: Ki) [nM]","IC50 [1, 6] [nM]","Ki [3, 7] [nM]",also measured
4-bromobenzenesulfonyl-Arg (D-Pipecolic acid)-(12-aminododecanoic acid)-4-aminobutyric acid)- Asp-Phe-Glu-Pro-Ile-Pro-Tyr-OH [BCH-2733],4.1,> 2,> 2,0.8,–,–,Ki ([3]; read-out: Ki value): < 1 nM and 0.8 nM
Hirudin,–,–,–,–,–,–,half-life [4]: 30 to 60 min
tert-butylbezenesulfonyl-Arg (D-Pipecolic acid)-(12-aminododecanoic acid)-4-aminobutyric acid)-Asp-Phe-Glu-Pro-Ile-Pro-Tyr-OH [BCH-2736],1100,4,> 4,270,–,–,–
Dansyl-Arg-(L-Pip)-Abu-NH2 [Peptide P430],–,–,–,–,39100 ± 7200,11600 ± 3300,–
Dansyl-Arg-(L-Pip)-NH2 [Peptide P428],–,–,–,–,37900 ± 1900,19100 ± 1300,–
"2,4,6 triisopropylbenzensulfonyl-Arg (D-Pipecolic acid)-(12-aminododecanoicacid)-4-aminobutyric acid)-Asp-Phe-Glu-Pro-Ile-Pro-Tyr-OH [BCH-2444]",55,–,–,5.5,–,–,–
Dansyl-Arg-(D-Tic)-NH2 [Peptide P396],–,–,–,–,820 ± 150,390 ± 20,–
tert-butylbezenesulfonyl-Arg (D-Pipecolic acid)-(12-aminododecanoic acid)-4-aminobutyric acid)-Asp-Phe-Glu-Pro-Ile-Pro-Tyr-OH [BCH-2443],12,> 4,> 4,1,–,–,–
Dansyl-Arg-(D-Pipecolic acid)-NH2 [Peptide P429],–,–,–,–,430 ± 130,158 ± 57,–
Dansyl-Arg-(D-Pipecolic acid)-Abu-NH2 [Peptide P431],–,–,–,–,2580 ± 680,980 ± 130,–
